Some test systems named below: NCI-H460 lung; SNB-19 CNS; A549 NSCLC; SF-539 CNS; HT29 colon; K-562 leukemia; SK-MEL-5 melanoma; RPMI-8226 leukemia; RXF 393 renal; UACC-257 melanoma.
What all share (assay): NCI anticancer screen, dose series, 48 h

SMILES strings stand for the structures.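 All cell lines were grown in 96-well plates and treated with compound for 48 hours. Here, GI50 denotes the concentration required for 50% inhibition of growth. TGI denotes the concentration required for complete inhibition of growth.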

Take `COC(=O)c1c(-c2ccccc2)csc1NC(=O)c1c(-c2ccccc2)noc1C`: the GI50 in the assay with NCI-H460 lung is 0.177 µM; with SNB-19 CNS, 1.07 µM; in the assay on A549 NSCLC it was 0.568 µM; in the assay with SF-539 CNS, 0.655 µM; in the assay with HT29 colon, 0.399 µM; in the assay with K-562 leukemia it was 0.409 µM. Also, the GI50 is 0.185 µM in the assay on SK-MEL-5 melanoma, 0.793 µM in the assay with RPMI-8226 leukemia, 0.762 µM in the assay on RXF 393 renal and over 82.9 µM in the assay with UACC-257 melanoma. Further, the TGI with NCI-H460 lung, in the assay on SNB-19 CNS, in the assay with A549 NSCLC, in the assay with SF-539 CNS, in the assay on HT29 colon and in the assay on K-562 leukemia was over 100 µM in each case. Moreover, the TGI in the assay with SK-MEL-5 melanoma was over 100 µM; in the assay with RPMI-8226 leukemia, over 100 µM; in the assay with RXF 393 renal, 3.97 µM; in the assay on UACC-257 melanoma, over 100 µM.
For `Cn1c2ccccc2c2c3c(c4c5ccccc5n(CCCCCC#N)c4c21)C(=O)N(O)C3=O`, the GI50 in the assay with NCI-H460 lung was 0.377 µM; in the assay with SNB-19 CNS, 0.545 µM; in the assay on A549 NSCLC it was 1.68 µM; with SF-539 CNS, 0.295 µM; with HT29 colon, 1.65 µM; with K-562 leukemia it was 0.71 µM. In addition, the GI50 is 0.319 µM in the assay with SK-MEL-5 melanoma, 0.609 µM with RPMI-8226 leukemia, 1.83 µM with RXF 393 renal and 1.65 µM in the assay on UACC-257 melanoma. The TGI is 2.34 µM in the assay with NCI-H460 lung; over 100 µM with SNB-19 CNS; 50.4 µM in the assay on A549 NSCLC; 1.1 µM with SF-539 CNS; 3.36 µM in the assay on HT29 colon; over 100 µM in the assay with K-562 leukemia. Also, the TGI in the assay on SK-MEL-5 melanoma amounted to 1.09 µM; in the assay on RPMI-8226 leukemia, 4.65 µM; with RXF 393 renal it was 7.75 µM; with UACC-257 melanoma, 5.22 µM.
For the molecule `COC(=O)c1ccc2c(c1)nc(-c1ccc(Cl)cc1)n2-c1cc(C(C)(C)C)[nH]n1`, the GI50 was 2.95 µM in the assay on NCI-H460 lung; 4.31 µM in the assay with SNB-19 CNS; 4.03 µM in the assay with A549 NSCLC; 2.54 µM with SF-539 CNS; 3.65 µM with HT29 colon; 4.2 µM in the assay with K-562 leukemia. In addition, the GI50 was 2.02 µM in the assay with SK-MEL-5 melanoma, 3.93 µM in the assay with RPMI-8226 leukemia, 1.57 µM in the assay on RXF 393 renal and 4.97 µM in the assay with UACC-257 melanoma. For the same molecule, the TGI in the assay with NCI-H460 lung was 8.81 µM; in the assay with SNB-19 CNS, over 100 µM; with A549 NSCLC, 94.5 µM; in the assay with SF-539 CNS it was 8.95 µM; in the assay on HT29 colon, 15.4 µM; in the assay with K-562 leukemia, over 100 µM. In addition, the TGI was 5.1 µM with SK-MEL-5 melanoma, 11.2 µM in the assay with RPMI-8226 leukemia, 5.77 µM in the assay with RXF 393 renal and 22.9 µM in the assay with UACC-257 melanoma.
For the molecule `COC(=O)/C(C#N)=C1\N=NNN1CCCc1ccccc1`, the TGI in the assay on NCI-H460 lung, in the assay with SNB-19 CNS, with A549 NSCLC, in the assay with SF-539 CNS, in the assay with HT29 colon and with K-562 leukemia was over 100 µM in each case. In addition, the TGI in the assay on SK-MEL-5 melanoma, with RPMI-8226 leukemia, in the assay with RXF 393 renal and in the assay with UACC-257 melanoma was over 100 µM each time.
For the molecule `COC(=O)c1oc2c(C(=O)/C=C/c3ccc(OC)cc3)c(OCCCN3CCCCC3)ccc2c1C`, the GI50 is 1.54 µM in the assay with NCI-H460 lung; 2.1 µM in the assay with SNB-19 CNS; 2.04 µM in the assay on A549 NSCLC; 1.45 µM in the assay with SF-539 CNS; 1.49 µM with HT29 colon; 2.6 µM in the assay on K-562 leukemia. The GI50 is 1.72 µM in the assay on SK-MEL-5 melanoma, 1.72 µM in the assay on RPMI-8226 leukemia, 0.066 µM with RXF 393 renal and 1.32 µM in the assay with UACC-257 melanoma. The TGI in the assay on NCI-H460 lung was 3.18 µM; with SNB-19 CNS, 8.92 µM; in the assay with A549 NSCLC it was 5.28 µM; in the assay on SF-539 CNS, 2.91 µM; in the assay on HT29 colon, 3.22 µM; in the assay on SK-MEL-5 melanoma it was 3.17 µM. Further, the TGI came out at 4 µM in the assay with RPMI-8226 leukemia, 0.487 µM in the assay with RXF 393 renal and 2.88 µM in the assay with UACC-257 melanoma.
As to `Nc1nc(Cl)nc2c1ncn2C1O[C@H](CO)[C@@H](O)[C@@H]1F` (some centres not stated), the GI50 was 0.37 µM in the assay on NCI-H460 lung; 0.216 µM in the assay with SNB-19 CNS; 0.379 µM in the assay with A549 NSCLC; 3.64 µM with SF-539 CNS; 3.79 µM in the assay on K-562 leukemia; 0.34 µM with SK-MEL-5 melanoma. Moreover, the GI50 with RPMI-8226 leukemia is over 31.5 µM; in the assay on RXF 393 renal, 1.48 µM. The TGI in the assay with NCI-H460 lung is over 100 µM; in the assay with SNB-19 CNS, over 100 µM; in the assay on A549 NSCLC it was over 100 µM; in the assay with SF-539 CNS, over 37.9 µM; in the assay on HT29 colon it was over 100 µM; in the assay on K-562 leukemia it was over 100 µM. In addition, the TGI in the assay on SK-MEL-5 melanoma is over 100 µM; in the assay on RPMI-8226 leukemia, over 100 µM; in the assay on RXF 393 renal, 35.3 µM; with UACC-257 melanoma, over 100 µM.
On to `Cc1cc2c(=O)cc(-c3ccc(Cl)cc3)oc2c(C(=O)O)c1C`, for which the TGI in the assay with NCI-H460 lung, in the assay on SNB-19 CNS, with A549 NSCLC, in the assay on SF-539 CNS, in the assay on HT29 colon and in the assay with K-562 leukemia was over 100 µM throughout. The TGI in the assay on SK-MEL-5 melanoma, in the assay with RPMI-8226 leukemia, with RXF 393 renal and with UACC-257 melanoma was over 100 µM in each case.
